From patent US8541428B2, “Heterocyclic derivatives, pharmaceutical compositions and methods of use thereof” (Technion Research and Development Foundation Ltd., priority 2006, dated 2013)
One block for each molecule: values may come before it.

Columns and labels:
[1] = target: peripheral-type benzodiazepine receptor (PBR) (Homo sapiens, UniProt P30536); assay: PBR binding assay, [3H]PK 11195 radio-assay (competition with radioactive standard ligand); conditions: for binding to PBR (in words): [3H]PK 11195 radio-assay
Chain of peripheral-type benzodiazepine receptor (PBR) (P30536 whole entry, species assumed): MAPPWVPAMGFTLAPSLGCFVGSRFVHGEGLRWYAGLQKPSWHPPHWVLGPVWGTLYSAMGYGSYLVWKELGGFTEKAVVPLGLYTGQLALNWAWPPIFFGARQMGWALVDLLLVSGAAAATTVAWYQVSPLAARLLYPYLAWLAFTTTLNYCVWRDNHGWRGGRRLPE
Protocol: Briefly, the assay utilizes radioactive standard ligand [^3H] PK 11195 (1-(2-chlorophenyl)-N-methyl-N-(1-methyl-propyl)-3-isoquinolinecarboxamide), and measures the ability of the compounds of the invention to compete with standard ligand in binding to PBR. Total radioactive binding was determined by measuring the radioactivity of the radioactive ligand-receptor complex, obtained in the reaction of radioactive standard with the PBR. Radioactive standard and the examined ligand were added to the PBR and after some incubation time the radioactivity of the resulting ligand-receptor complexes was measured with the help of […]. This radioactivity indicates the binding of the radioactive standard to PBR. […] For an easier interpretation of our results, the binding was expressed in percentage of radioactive ligand binding. The lower the number, the better the binding of the examined ligand to PBR. Western blot analysis can be used to see which components of the PBR-complex may be important for the efficacy of the new PBR ligands, according to methods described previously [Levin E et al. 2005; Kuznetsov V et al. 2005; Weisinger G et al. Biochemistiy 2004].

C6 glioma cell line [2] = assay: Apoptotic levels in C6 glioma cell line (control and IBP knockdown); assay type: cell-based, rat; conditions: for increase of apoptotic levels: control cells; for apoptotic effects in IBP knockdown cell line: IBP knockdown cells, FGIN-1-27 10^-5M, ErPC 10^-4M
From the text: Cell death, including apoptosis. The Cell Death Detection ELISA^PLUS kit of Roche Molecular Biochemicals (Mannheim, Germany) was used to determine the effects on apoptosis by the new PBR ligands, in particular the one of the present description, according to methods described previously [Veenman L et al. 2005; Levin E et al. 2005]. Also, the Trypan blue method was applied in order to determine the cell viability after application of the new PBR ligands, according to methods described previously [Veenman L et al. 2005; Levin E et al. 2005]. Cell death including apoptosis of neural cells is induced by glutamate and Abeta, according to methods described previously [Michal Gaitner, M. Sc. thesis, 2004].

C6 glioma cell line [3] = assay: Mitochondrial membrane potential decrease in C6 glioma cell line (control and IBP knockdown); assay type: cell-based, rat; conditions: 10^-4M
Protocol: Mitochondrial membrane potential and mitochondrial volume measurement. To see whether the new PBR ligand is able to prevent opening of the mitochondrial permeability transition pore to prevent apoptosis changes in the mitochondrial volume and potential are measured, as described previously [Maaser K, Br J Cancer 2001;85:1771-1780].

PBR-complex = PBR-complex (Homo sapiens, UniProt P30536); conditions: displacement of [3H]Ro5 4864; cited from earlier work
Chain of PBR-complex (P30536 whole entry, one chain of several): as the sequence (P30536 whole entry, species assumed) above

[4] = modulation of PBR composition, seizures; cited from earlier work

SMILES: CN(C)C(=O)Oc1nc(-c2ccccc2)nc2ccccc12 [Compound 9a, Dimethyl-carbamic acid 2-phenyl-quinazolin-4-yl ester]
- binding to PBR (in words) [1]: good binding properties

SMILES: CCCCCCCC/C=C\CCCCCCCCCCCCOP(=O)([O-])OCC[N+](C)(C)C [ErPC]
- increase of apoptotic levels (C6 glioma cell line [2]; 10^-4M): 7-8 fold
- apoptotic effects in IBP knockdown cell line (C6 glioma cell line [2]): completely abolished
- effects on mitochondrial potential in IBP knockdown cell line (C6 glioma cell line [3]; IBP knockdown cell line (as 3.7)): completely abolished
- enhancement of mitochondrial membrane potential decrease (C6 glioma cell line [3]; control cells vs vehicle treated control cells): 6 fold

SMILES: CCCCCCN(CCCCCC)C(=O)Cc1c(-c2ccc(F)cc2)[nH]c2ccccc12 [FGIN-1-27]
- increase of apoptotic levels (C6 glioma cell line [2]; 10^-5M): 2 fold
- apoptotic effects in IBP knockdown cell line (C6 glioma cell line [2]): completely abolished
- Ki (PBR-complex): 4.4 ± 0.1 nM

SMILES: CCC(C)N(C)C(=O)c1cc2ccccc2c(-c2ccccc2Cl)n1 (centres unmarked) [PK 11195, 1-(2-chlorophenyl)-N-methyl-N-(1-methyl-propyl)-3-isoquinolinecarboxamide]
- effect on consequences of kainic acid injections [4]: prevented the effects of kainic acid injections

Next, values leading:

- binding to PBR (in words) [1]: best binding
SMILES: CCN(CC)C(=O)C(C)(C)c1nc2ccccc2nc1-c1ccccc1 [Compound 5, N,N-Diethyl-2-(3-phenyl-quinoxalin-2-yl)-isobutyramide]

- binding to PBR (in words) [1]: good binding properties
SMILES: CC(C)N(C(=O)n1c(-c2ccccc2)nc2ccccc2c1=O)C(C)C [Compound 10b, 4-Oxo-2-phenyl-4H-quinazoline-3-carboxylic acid diisopropylamide]

- radioactive standard remained bound to PBR (percentage of radioactive ligand binding) ([1]; [3H]PK 11195, the lower the number, the better the binding): 14%
- binding to PBR (in words) [1]: good binding properties
SMILES: CCN(CC)C(=O)Cc1nc(-c2ccccc2)nc2ccccc12 [Compound 12b, N,N-Diethyl-2-(2-phenyl-quinazolin-4-yl)-acetamide]

- binding to PBR (in words) [1]: good binding properties
SMILES: CC(C)N(C(=O)Cc1nc(-c2ccccc2)nc2ccccc12)C(C)C [Compound 12c, N,N-Diisopropyl-2-(2-phenyl-quinazolin-4-yl)-acetamide]
